The source of these data is US20240082238A1, “COMPOSITIONS AND METHODS FOR TREATING CANCER” (UNIVERSITY OF IOWA RESEARCH FOUNDATION, priority 2021, published 2024).

The experiment relates to LLC-PK1-WT cells. In words: Cytotoxicity assay (MTS), LLC-PK1-WT cells. Type of experiment: cell-based, porcine. The note with it: Sus scrofa; PTX alone, 72 h. Here is the method: Cytotoxicity assay. Hec50co cells were seeded at 1500 cells per well in 96-well plates for 24 h in a complete medium. Later, the medium was removed and PTX, CIP2b, or CIP (all dissolved in DMSO and diluted in complete medium) were added to cells as either monotherapies or in combinations, and the plates were incubated for 72 hours. Then, the complete medium was removed and MTS reagent in the complete medium was added to wells, and the plates were incubated for 1-4 hours according to the manufacturer's protocol. Finally, the absorbance was recorded at 490 nm using a Spectra Max plus 384 Microplate Spectrophotometer (Molecular Devices, Sunnyvale, CA). Percentage cell viability was expressed as the average absorbance of the test group relative to that of the control group (untreated cells). The concentration that inhibits proliferation of 50% of cells compared to control (IC50) was calculated using GraphPad Prism (La Jolla, CA). Synergism was detected following the Chou-Talalay method (CI<1 indicates synergism) (Chou T C. Cancer research. 2010; 70(2):440-6, doi: 10.1158/0008-5472.CAN-09-1947) using CompuSyn software (Ver. 1.0).
P-gp efflux transporter. Overexpression of the MDR1 gene, reflected in the abundance of the P-gp efflux pump, is one of the major reasons for PTX chemoresistance in cancer. In this study, LLC-PK1-WT and LLC-PK1-MDR1 cell lines were used. […]

Each structure is given as a SMILES string.

As usually defined, the IC50 is the concentration at which inhibition is half-maximal. Regarding `CC(=O)O[C@H]1C(=O)[C@@]2(C)[C@H]([C@H](OC(=O)c3ccccc3)[C@]3(O)C[C@H](OC(=O)[C@H](O)[C@@H](NC(=O)c4ccccc4)c4ccccc4)C(C)=C1C3(C)C)[C@]1(OC(C)=O)CO[C@@H]1C[C@@H]2O` [PTX, paclitaxel], the half-inhibitory concentration (IC50) worked out at 21.3 nM.
